Experimental data published in the supplement of paper PMC11061612.

How the values were obtained:
Capivasertib = compound: C1CN(CCC1(C(=O)N[C@@H](CCO)C2=CC=C(C=C2)Cl)N)C3=NC=NC4=C3C=CN4 [Capivasertib]; conditions: max 10 µM
Outline: (§1)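 Cancer cell lines were plated in 1536-well plates in 7.5 μl of DMEM/F12 or RPMI with 10% FBS and kept 24 hours at 37°C and 5% CO2 before 72 hours of dosing, with final DMSO typically 0.2%. CellTiter-Glo 2.0 luminescence measured viability, scaled between blank-well and DMSO-well means. Dose responses were fitted to a two-parameter logistic curve with a non-linear mixed effects model. This fit gives the single-agent IC50.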

Selumetinib = compound: Cn1cnc2c(F)c(Nc3ccc(Br)cc3Cl)c(C(=O)NOCCO)cc21 [Selumetinib]; conditions: max 10 µM
Outline: as §1

AZD2811 = compound: CCN(CCO)CCCOc1ccc2c(Nc3cc(CC(=O)Nc4cccc(F)c4)[nH]n3)ncnc2c1 [AZD2811]; conditions: max 1 µM
Outline: as §1

Venetoclax = compound: CC1(C)CCC(CN2CCN(c3ccc(C(=O)NS(=O)(=O)c4ccc(NCC5CCOCC5)c([N+](=O)[O-])c4)c(Oc4cnc5[nH]ccc5c4)c3)CC2)=C(c2ccc(Cl)cc2)C1 [Venetoclax]; conditions: max 1 µM
Outline: as §1

Prexasertib = compound: COc1cccc(OCCCN)c1-c1cc(Nc2cnc(C#N)cn2)n[nH]1 [Prexasertib]; conditions: max 1 µM
Outline: as §1

AZD4320 = compound: CN(CC[C@H](CSC1=CC=CC=C1)NC2=C(C=C(C=C2)S(=O)(=O)NC(=O)C3=CC=C(C=C3)N4CCC(CC4)[C@H](C5=CC=CC=C5C6=CC=C(C=C6)Cl)O)S(=O)(=O)C(F)(F)F)CCO [AZD4320]; conditions: max 1 µM
Outline: as §1

AZD5991 = compound: Cc1c2c(nn1C)CSCc1cc(n(C)n1)CSc1cc(c3ccccc3c1)OCCCc1c(C(=O)O)n(C)c3c-2c(Cl)ccc13 [AZD5991]; conditions: max 1 µM
Outline: as §1

AZD8186 = compound: C[C@@H](Nc1cc(F)cc(F)c1)c1cc(C(=O)N(C)C)cc2c(=O)cc(N3CCOCC3)oc12 [AZD8186]
Outline: as §1

Dasatinib = compound: CC1=C(C(=CC=C1)Cl)NC(=O)C2=CN=C(S2)NC3=CC(=NC(=N3)C)N4CCN(CC4)CCO [Dasatinib]; conditions: max 2 µM
Outline: as §1

Taselisib = compound: Cc1nc(-c2cn3c(n2)-c2ccc(-c4cnn(C(C)(C)C(N)=O)c4)cc2OCC3)n(C(C)C)n1 [Taselisib]; conditions: max 10 µM
Outline: as §1

AZD1775 = compound: C=CCn1c(=O)c2cnc(Nc3ccc(N4CCN(C)CC4)cc3)nc2n1-c1cccc(C(C)(C)O)n1 [AZD1775]; conditions: max 3 µM
Outline: as §1

AZD1390 = compound: CC(C)n1c(=O)n(C)c2cnc3cc(F)c(-c4ccc(OCCCN5CCCCC5)nc4)cc3c21 [AZD1390]; conditions: max 0.3 µM
Outline: as §1

Doxorubicin = compound: COc1cccc2c1C(=O)c1c(O)c3c(c(O)c1C2=O)C[C@@](O)(C(=O)CO)C[C@@H]3O[C@H]1C[C@H](N)[C@H](O)[C@H](C)O1 [Doxorubicin]; conditions: max 1 µM
Outline: as §1

Gefitinib = compound: COc1cc2ncnc(Nc3ccc(F)c(Cl)c3)c2cc1OCCCN1CCOCC1 [Gefitinib]; conditions: max 10 µM
Outline: as §1

Alisertib = compound: COc1cc(Nc2ncc3c(n2)-c2ccc(Cl)cc2C(c2c(F)cccc2OC)=NC3)ccc1C(=O)O [Alisertib]; conditions: max 10 µM
Outline: as §1

SG3199 = compound: CC1=CN2[C@@H](C1)C=NC3=CC(=C(C=C3C2=O)OC)OCCCCCOC4=C(C=C5C(=C4)N=C[C@@H]6CC(=CN6C5=O)C)OC [SG3199]; conditions: max 0.001 µM
Outline: as §1

Savolitinib = compound: C[C@@H](c1ccc2nccn2c1)n1nnc2ncc(-c3cnn(C)c3)nc21 [Savolitinib]; conditions: max 1 µM
Outline: as §1

Lapatinib = compound: CS(=O)(=O)CCNCc1ccc(-c2ccc3ncnc(Nc4ccc(OCc5cccc(F)c5)c(Cl)c4)c3c2)o1 [Lapatinib]; conditions: max 10 µM
Outline: as §1

SN-38 = compound: CCc1c2c(nc3ccc(O)cc13)-c1cc3c(c(=O)n1C2)COC(=O)[C@]3(O)CC [SN-38]; conditions: max 0.3 µM
Outline: as §1

AZD0156 = compound: CN(C)CCCOc1ccc(-c2ccc3ncc4c(c3c2)n(C2CCOCC2)c(=O)n4C)cn1 [AZD0156]; conditions: max 3 µM
Outline: as §1

AZD6738 = compound: C[C@@H]1COCCN1C2=NC(=NC(=C2)C3(CC3)[S@](=N)(=O)C)C4=C5C=CNC5=NC=C4 [AZD6738]; conditions: max 10 µM
Outline: as §1

Palbociclib = compound: CC(=O)c1c(C)c2cnc(Nc3ccc(N4CCNCC4)cn3)nc2n(C2CCCC2)c1=O [Palbociclib]; conditions: max 10 µM
Outline: as §1

Crizotinib = compound: C[C@@H](Oc1cc(-c2cnn(C3CCNCC3)c2)cnc1N)c1c(Cl)ccc(F)c1Cl [Crizotinib]; conditions: max 10 µM
Outline: as §1

AZD5153 = compound: COc1nnc2ccc(N3CCC(c4ccc(OCCN5CCN(C)C(=O)[C@H]5C)cc4)CC3)nn12 [AZD5153]; conditions: max 1 µM
Outline: as §1

Olaparib = compound: O=C(c1cc(Cc2n[nH]c(=O)c3ccccc23)ccc1F)N1CCN(C(=O)C2CC2)CC1 [Olaparib]; conditions: max 10 µM
Outline: as §1

AZD7648 = compound: Cc1cc2ncnn2cc1Nc1ncc2c(n1)n(C1CCOCC1)c(=O)n2C [AZD7648]; conditions: max 10 µM
Outline: as §1

Trametinib = compound: CC(=O)Nc1cccc(-n2c(=O)n(C3CC3)c(=O)c3c(Nc4ccc(I)cc4F)n(C)c(=O)c(C)c32)c1 [Trametinib]; conditions: max 1 µM
Outline: as §1

Etoposide = compound: COc1cc([C@@H]2c3cc4c(cc3[C@@H](O[C@@H]3O[C@@H]5CO[C@@H](C)O[C@H]5[C@H](O)[C@H]3O)[C@H]3COC(=O)[C@H]23)OCO4)cc(OC)c1O [Etoposide]; conditions: max 10 µM
Outline: as §1

Carboplatin = compound: C1CC(C1)(C(=O)[O-])C(=O)[O-].N.N.[Pt+2] [Carboplatin]; conditions: max 10 µM
Outline: as §1

MK-2206 = compound: NC1(c2ccc(-c3nc4ccn5c(=O)[nH]nc5c4cc3-c3ccccc3)cc2)CCC1 [MK-2206]; conditions: max 10 µM
Outline: as §1

SRA737 = compound: N#Cc1cnc(Nc2cc(NC[C@H]3CNCCO3)c(C(F)(F)F)cn2)cn1 [SRA737]; conditions: max 10 µM
Outline: as §1

AZD5363 = compound: C1CN(CCC1(C(=O)N[C@@H](CCO)C2=CC=C(C=C2)Cl)N)C3=NC=NC4=C3C=CN4 [AZD5363]; conditions: max 10 µM
Outline: as §1

Gemcitabine = compound: Nc1ccn([C@@H]2O[C@H](CO)[C@@H](O)C2(F)F)c(=O)n1 [Gemcitabine]; conditions: max 0.3 µM
Outline: as §1

5-Fluorouracil = compound: O=c1[nH]cc(F)c(=O)[nH]1 [5-Fluorouracil]; conditions: max 20 µM
Outline: as §1

Paclitaxel = compound: CC(=O)O[C@H]1C(=O)[C@@]2(C)[C@H]([C@H](OC(=O)c3ccccc3)[C@]3(O)C[C@H](OC(=O)[C@H](O)[C@@H](NC(=O)c4ccccc4)c4ccccc4)C(C)=C1C3(C)C)[C@]1(OC(C)=O)CO[C@@H]1C[C@@H]2O [Paclitaxel]; conditions: max 3 µM
Outline: as §1

[1] = compound: O=C(Nc1ccc2[nH]nc(-c3ccncc3)c2c1)[C@@H]1CCN(CC(=O)N2CCN(c3ccc(-c4ncccn4)cc3)CC2)C1; conditions: max 5 µM
Outline: as §1

Cell Line | IC50, cell viability 72 h (Capivasertib) | IC50, cell viability 72 h (Selumetinib) | IC50, cell viability 72 h (AZD2811) | IC50, cell viability 72 h (Venetoclax) | IC50, cell viability 72 h (Prexasertib) | IC50, cell viability 72 h (AZD4320) | IC50, cell viability 72 h (AZD5991) | IC50, cell viability 72 h (AZD8186; max 3 µM) | IC50, cell viability 72 h (Dasatinib) | IC50, cell viability 72 h (Taselisib) | IC50, cell viability 72 h (AZD1775) | IC50, cell viability 72 h (AZD1390) | IC50, cell viability 72 h (Doxorubicin) | IC50, cell viability 72 h (Gefitinib) | IC50, cell viability 72 h (Alisertib) | IC50, cell viability 72 h (SG3199) | IC50, cell viability 72 h (Savolitinib) | IC50, cell viability 72 h (Lapatinib) | IC50, cell viability 72 h (SN-38) | IC50, cell viability 72 h (AZD0156) | IC50, cell viability 72 h (AZD6738) | IC50, cell viability 72 h (Palbociclib) | IC50, cell viability 72 h (Crizotinib) | IC50, cell viability 72 h (AZD5153) | IC50, cell viability 72 h (Olaparib) | IC50, cell viability 72 h (AZD7648) | IC50, cell viability 72 h (Trametinib) | IC50, cell viability 72 h (Etoposide) | IC50, cell viability 72 h (Carboplatin) | IC50, cell viability 72 h (MK-2206) | IC50, cell viability 72 h (AZD8186; max 10 µM) | IC50, cell viability 72 h (SRA737) | IC50, cell viability 72 h (AZD5363) | IC50, cell viability 72 h (Gemcitabine) | IC50, cell viability 72 h (5-Fluorouracil) | IC50, cell viability 72 h (Paclitaxel) | IC50, cell viability 72 h [1]
GDM-1 (Acute Myeloid Leukemia) | 8680 nM | > 10000 nM | 65.6 nM | 392 nM | 40.2 nM | 83.4 nM | > 1000 nM | 1940 nM | 9.37 nM | 121 nM | 435 nM | > 300 nM | 326 nM | > 10000 nM | 123 nM | > 1 nM | > 1000 nM | > 10000 nM | 4.15 nM | > 3000 nM | 7150 nM | 8090 nM | 1160 nM | 64.8 nM | > 10000 nM | 5190 nM | > 1000 nM |  |  |  |  |  |  |  |  |  | 
HCC-827 (Lung Adenocarcinoma) | > 10000 nM | > 10000 nM | > 1000 nM | > 1000 nM | 465 nM | > 1000 nM | > 1000 nM | > 3000 nM | 130 nM | 8540 nM | > 3000 nM | > 300 nM | > 1000 nM | 84.2 nM | > 10000 nM | > 1 nM | > 1000 nM | 3000 nM | > 300 nM | > 3000 nM | > 10000 nM | > 10000 nM | > 10000 nM | > 1000 nM | > 10000 nM | > 10000 nM | > 1000 nM |  |  |  |  |  |  |  |  |  | 
SNG-M (Endometrial Carcinoma) |  | > 10000 nM | > 1000 nM | > 1000 nM | 23.1 nM | > 1000 nM | > 1000 nM |  | 259 nM | 3820 nM | 874 nM | > 300 nM | > 1000 nM | > 10000 nM | 2440 nM | > 1 nM | > 1000 nM | > 10000 nM | 153 nM | > 3000 nM | 1310 nM | > 10000 nM | > 10000 nM | > 1000 nM | > 10000 nM | > 10000 nM | > 1000 nM | > 10000 nM | > 10000 nM | > 10000 nM | > 10000 nM | 5190 nM | > 10000 nM | 33 nM | > 20000 nM | 6.87 nM | > 5000 nM
